Experiments:
Paraventricular neurons = assay: Reactive oxygen species production (DHE/ethidium fluorescence) in neurons challenged with aldosterone; format: cell-based, SD rats; settings: mean±SE
Description: Paraventricular neurons were isolated from 22 day old female SD rats, dissociated and cultured on round coverslips and maintained in HBSS media for at least 48 hours prior to visualization by confocal microscopy. All cells were pre-incubated in 10 nM ALDO for 48 hours and then 1.0 μM Ang-(1-7) or 1.0 μM Ang-(1-7)+10.0 μM […] for 2 hours prior to testing with acute 1.0 μM Aldo. To measure ROS, changes in the ethidium fluorescence were measured which is directly proportional to the oxidation of dihydroethidium (DHE) by ROS. The cells were loaded with DHE (20 μM) added to the cell culture media for 1 h and then placed in a chamber for microscopic visualization of fluorescence. One-way ANOVAs for the experimental groups response to acute Aldo was determined. After establishing a significant ANOVA, post-hoc analyses were performed with Tukey multiple comparison tests between pairs of mean change scores. All data are expressed as means±SE. Statistical significance was set at P<0.05. Perfusion with 1.0 μM ALDO increased ROS (D=113.4+28%) in the PVN neurons. […] Pre-incubation in Ang-(1-7)+[…], restored the ALDO increase in ROS (Delta=105.9+9%). Change in ROS production was standardized relative to control state prior to ALDO treatment during ACSF incubation. ANOVA followed by Tukey's post hoc test was used for statistical comparisons between control and ALDO treatment. […]

CHF mice [1] = assay: Ejection fraction by echocardiography in CHF mice; format: in vivo; settings: systemic treatment 50 mcg/kg/hr subcutaneously
Description: Myocardial infarction and subsequent CHF was induced by ligation of the left coronary artery. By week 4 and week 8 post MI, CHF mice (n=15) had approximately 50 and 70% decline in ejection fraction as measured by echocardiography. For the object recognition SOR test at 8 weeks post MI, discrimination ratios were calculated from the time spent exploring the novel versus familiar object during the test phase. […] At 8 weeks post MI, a subgroup of CHF mice (n=6) and controls (n=4) were given 50 mcg/kg/hr Angiotensin (1-7) or saline subcutaneously for 4 weeks and then cognitive function was retested.
(§1) In addition, the invention provides a preclinical animal model of cardiovascular disease and congestive heart failure induced cognitive dysfunction. A total of 26, male C57B1/6J mice were randomly assigned to the control group or cardiovascular disease and congestive heart failure group. Myocardial infarction was induced by ligation of the left coronary artery. By week 4 and week 8 post MI, cardiovascular disease and congestive heart failure mice (n=15) had approximately 50 and 70% decline in ejection fraction as measured by echocardiography. Mice were tested for changes in spatial learning memory via the Morris water task and object recognition via the standard spontaneous object recognition (SOR) task at 4 and 8 weeks post MI. […]

CHF mice [2] = assay: Spontaneous (novel) object recognition (SOR) test in mice with congestive heart failure after myocardial infarction; format: in vivo; settings: CHF mice (n=6), 50 mcg/kg/hr subcutaneously from 8 weeks post MI, after 3 weeks of treatment; controls +0.25±0.2, CHF+saline −0.21±0.1
Description: Mice were 12 weeks post MI or sham surgery. Six mice were MI+Ang(1-7); three mice were MI+saline; and four mice were Sham+Ang (1-7). Alzet pumps with either Ang(1-7) or saline were implanted sq 3 weeks prior to NOR test. Novel object recognition test was performed 3 weeks post pump implant. Data shown are 1st 2 min of “test phase” DRatio=(t novel−t familiar)/(t novel+t familiar). A positive score indicates more time spent with the novel object, a negative score indicates more time spent with the familiar object, and a zero score indicates a null preference. *=p<0.05, #=p<0.05. ANOVA+posthoc Turkey test.
Myocardial infarction and subsequent CHF was induced by ligation of the left coronary artery. By week 4 and week 8 post MI, CHF mice (n=15) had approximately 50 and 70% decline in ejection fraction as measured by echocardiography. For the object recognition SOR test at 8 weeks post MI, discrimination ratios were calculated from the time spent exploring the novel versus familiar object during the test phase. […]
In addition, the invention provides a preclinical animal model of cardiovascular disease and congestive heart failure induced cognitive dysfunction. […] By week 4 and week 8 post MI, cardiovascular disease and congestive heart failure mice (n=15) had approximately 50 and 70% decline in ejection fraction as measured by echocardiography. […]

CHF mice [3] = assay: Morris water maze task (spatial memory) in mice with congestive heart failure after myocardial infarction; format: in vivo; settings: 50 mcg/kg/hr subcutaneously for 4 weeks from 8 weeks post MI, first day of testing
Description: Prior to MI, the controls and CHF mice groups performed similarly on the Morris water task. Myocardial infarction and subsequent CHF was induced by ligation of the left coronary artery. By week 4 and week 8 post MI, CHF mice had approximately 50 and 70% decline in ejection fraction as measured by echocardiography. […] Animals were tested over 4 days with 6 spatial trials per day.
as §1, with “MI. At 8 weeks post MI, a subgroup of cardiovascular disease and congestive heart failure mice (n=6) and the control mice (n=4) were given 50 mcg/kg/hr Angiotensin (1-7) or saline subcutaneously for 4 weeks and then cognitive function was retested.” for “MI.”

Molecule	Change in ROS (D) relative to control state prior to ALDO treatment (Paraventricular neurons; PVN neurons, perfusion with 1.0 μM ALDO, no Ang-(1-7) pre-incubation)	Ejection fraction (CHF mice [1])	SOR discrimination ratio (CHF mice [2])	Change in ROS (D) on ALDO, relative to control state prior to ALDO treatment (Paraventricular neurons; PVN neurons pre-incubated 2 hours in 1.0 μM Ang-(1-7), then acute 1.0 μM ALDO)	Performance in Morris water maze task after treatment (CHF mice [3])
C[C@]12CCC(=O)C=C1CC[C@@H]1[C@@H]2[C@@H](O)C[C@]2(C=O)[C@@H](C(=O)CO)CC[C@@H]12 [ALDO, Aldosterone, reference compound]	113.4+28%	–	–	–	–
angiotensin-(1-7) (DRVYIHP; Angiotensin 1-7; UniProt P01019 25-31, looked up) [Ang-(1-7), endogenous peptide derived from Angiotensin II via ACE2]	–	not significantly impacted	+0.43±0.1	6.4+27%	significant improvement on object recognition memory on the first day of testing
